Among the data in patent US9555050B2 (BIOGEN MA INC., priority 2012, dated 2017) are IC50 values, retold here.

Usually IC50 stands for the concentration that inhibits the measured activity by half. Lower therefore signals greater potency in that assay.

The target in the assay is T1, Human ATX protein (Homo sapiens, UniProt Q13822).
T1 construct: made in house
In words: ATX biochemical FRET assay with FS-3 substrate. As to conditions: FS-3 substrate 2 μM, ATX 1.0 μg/mL, 30 min preincubation, 2 hours at room temperature. The gist of the method: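 In-house purified human ATX (1.0 μg/mL final) pre-incubated 30 min at room temperature with compound in Tris buffer pH 7.4 with salts and 1 mg/mL fatty acid-free BSA. FS-3 substrate (2 μM final) then hydrolysed 2 h at room temperature, protected from light; fluorescence read at 485/538 nm.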
With `CCC(c1ccc2c(C(F)(F)F)c(O[C@H]3CC[C@@H](C)CC3)ccc2c1)N1CCC[C@H](CC(=O)O)C1` (stereo partly drawn) [Example 10, 2-((3R)-1-(1-(6-((cis-4-Methylcyclohexyl)oxy)-5-(trifluoromethyl)naphthalen-2-yl)propyl)piperidin-3-yl)acetic acid], the IC50 was no more than 100 nM. Turning to `O=C(O)CC1CCCN(Cc2ccc3c(C(F)(F)F)c(O[C@H]4CC[C@@H](C(F)(F)F)CC4)ccc3c2)C1` (relative stereo) [Example 67, 1-((5-(trifluoromethyl)-6-((cis-4-(trifluoromethyl)cyclohexyl)oxy)-naphthalen-2-yl)methyl)piperidine-3-acetic acid], the IC50 is no more than 250 nM.

`O=C(O)C1CCC(NCc2ccc3c(C(F)(F)F)c(O[C@H]4CC[C@@H](C(F)(F)F)CC4)ccc3c2)C1` (single isomer, unassigned) [Example 3b, 3-(((5-(trifluoromethyl)-6-((cis-4-(trifluoromethyl)cyclohexyl)oxy)-naphthalen-2-yl)methyl)amino)cyclopentanecarboxylic acid] gave an IC50 of no more than 500 nM. `O=C(O)C[C@H]1CCCN(Cc2ccc3c(C(F)(F)F)c(O[C@H]4CC[C@@H](C(F)(F)F)CC4)ccc3c2)C1` [Example 80, 2-((R)-1-((2-(cis-4-(trifluoromethyl)cyclohexyloxy)-1-(trifluoromethyl)naphthalen-6-yl)methyl)piperidin-3-yl)acetic acid] yielded an IC50 of no more than 250 nM. `CC[C@@H](c1ccc2c(C(F)(F)F)c(O[C@H]3CC[C@@H](C)CC3)ccc2c1)N1CCC[C@H](CC(=O)O)C1` [Example 59, 2-((3R)-1-((S)-1-(6-((cis-4-Methylcyclohexyl)oxy)-5-(trifluoromethyl)naphthalen-2-yl)propyl)piperidin-3-yl)acetic acid] had an IC50 of no more than 100 nM.

For the compound `O=C(O)C1CCN(Cc2ccc3c(C(F)(F)F)c(O[C@H]4CC[C@@H](C(F)(F)F)CC4)ccc3c2)CC1` [Example 2, 1-((5-(trifluoromethyl)-6-((cis-4-(trifluoromethyl)cyclohexyl)oxy)-naphthalen-2-yl)methyl)piperidine-4-carboxylic acid], the IC50 was no more than 500 nM. Compound `CC(c1ccc2c(C(F)F)c(O[C@H]3CC[C@@H](C)CC3)ccc2c1)N1CCC[C@H](CC(=O)O)C1` (stereo partly drawn) [Example 53, 2-((3R)-1-(1-(6-((cis-4-Methylcyclohexyl)oxy)-5-(difluoromethyl)naphthalen-2-yl)ethyl)piperidin-3-yl)acetic acid] yielded an IC50 of no more than 100 nM.

The compound `O=C(NCCCP(=O)(O)O)c1ccc2c(C(F)(F)F)c(O[C@H]3CC[C@@H](C(F)(F)F)CC3)ccc2c1` [Example 19, (3-(5-(trifluoromethyl)-6-((cis-4-(trifluoromethyl)cyclohexyl)oxy)-2-naphthamido)propyl)phosphonic acid] yielded an IC50 of no more than 100 nM. Under `O=C(O)C1CCCN(Cc2ccc3c(C(F)(F)F)c(O[C@H]4CC[C@@H](C(F)(F)F)CC4)ccc3c2)CC1` (relative stereo) [Example 76, 1-((5-(trifluoromethyl)-6-((cis-4-(trifluoromethyl)cyclohexyl)oxy)-naphthalen-2-yl)methyl)azepane-4-carboxylic acid] stands no more than 500 nM; under `NC1(C(=O)O)CCN(Cc2ccc3c(C(F)(F)F)c(O[C@H]4CC[C@@H](C(F)(F)F)CC4)ccc3c2)C1` (relative stereo) [Example 78, 1-((5-(trifluoromethyl)-6-((cis-4-(trifluoromethyl)cyclohexyl)oxy)-naphthalen-2-yl)methyl)-3-aminopyrrolidine-3-carboxylic acid], no more than 500 nM; under `O=C(O)C1CC(O)CN(Cc2ccc3c(C(F)(F)F)c(O[C@H]4CC[C@@H](C(F)(F)F)CC4)ccc3c2)C1` (relative stereo) [Example 81, 1-((5-(trifluoromethyl)-6-(cis-4-(trifluoromethyl)cyclohexyloxy)naphthalene-2-yl)methyl)-5-hydroxypiperidine-3-carboxylic acid], no more than 250 nM. For `C[C@H]1CC[C@@H](Oc2ccc3cc(CN4CCCCC(C(=O)O)C4)ccc3c2C(F)(F)F)CC1` (relative stereo) [Example 48, 1-((5-trifluoromethyl-6-(cis-4-methylcyclohexyloxy)naphthalene-2-yl)methyl)-azepane-3-carboxylic acid] the value was no more than 500 nM; for `CCC(c1ccc2c(C(F)(F)F)c(O[C@H]3CC[C@@H](C(F)(F)F)CC3)ccc2c1)N1CCC[C@@H](CC(=O)O)C1` (stereo partly drawn) [Example 89, 2-((S)-1-(1-(2-(cis-4-(trifluoromethyl)cyclohexyloxy)-1-(trifluoromethyl)naphthalen-6-yl)propyl)piperidin-3-yl)acetic acid], no more than 100 nM; for `CC[C@H](c1ccc2c(C(F)(F)F)c(O[C@H]3CC[C@@H](C)CC3)ccc2c1)N1CCC[C@H](CC(=O)O)C1` [Example 60, 2-((3R)-1-((R)-1-(6-((cis-4-Methylcyclohexyl)oxy)-5-(trifluoromethyl)naphthalen-2-yl)propyl)piperidin-3-yl)acetic acid], no more than 100 nM. For `C[C@H](c1ccc2c(C(F)(F)F)c(O[C@H]3CC[C@@H](C)CC3)ccc2c1)N1CCC[C@H](CC(=O)O)C1` [Example 96, 2-((3R)-1-((R)-1-(6-((cis-4-Methylcyclohexyl)oxy)-5-(trifluoromethyl)naphthalen-2-yl)ethyl)piperidin-3-yl)acetic acid] the value was no more than 100 nM. The compound `CC(NC1CC(C(=O)O)C1(C)C)c1ccc2c(C(F)(F)F)c(O[C@H]3CC[C@@H](C(F)(F)F)CC3)ccc2c1` (stereo partly drawn) [Example 37, 2,2-dimethyl-3-(1-(5-(trifluoromethyl)-6-((cis)-4-(trifluoromethyl)cyclohexyloxy)naphthalen-2-yl)ethylamino)cyclobutanecarboxylic acid] had an IC50 of no more than 100 nM.

`C[C@H]1CC[C@@H](Oc2ccc3cc(CN4CCC[C@H](CC(=O)O)C4)ccc3c2C(F)(F)F)CC1` [Example 49, 2-((3R)-1-((6-((cis-4-Methylcyclohexyl)oxy)-5-(trifluoromethyl)naphthalen-2-yl)methyl)piperidin-3-yl)acetic acid] gave an IC50 of no more than 100 nM. Turning to `C[C@H]1CC[C@@H](Oc2ccc3cc(CN4CCCC(CC(=O)O)C4)ccc3c2C(F)(F)F)CC1` (stereo partly drawn) [Example 9, 2-(1-((6-((cis-4-methylcyclohexyl)oxy)-5-(trifluoromethyl)naphthalen-2-yl)methyl)piperidin-3-yl)acetic acid], the IC50 was no more than 250 nM. For `O=P(O)(O)Cc1ccc(NCc2ccc3c(C(F)(F)F)c(O[C@H]4CC[C@@H](C(F)(F)F)CC4)ccc3c2)cc1` [Example 68, (4-((5-(trifluoromethyl)-6-(cis-4-(trifluoromethyl)cyclohexyloxy)naphthalene-2-yl)methyl)aminophenyl)methylphosphonic acid] the value was no more than 100 nM; for `O=C(O)[C@H]1CC[C@@H](NCc2ccc3c(C(F)(F)F)c(O[C@H]4CC[C@@H](C(F)(F)F)CC4)ccc3c2)CC1` [Example 70, cis-4-(((5-(trifluoromethyl)-6-((cis)-4-(trifluoromethyl)cyclohexyloxy)naphthalene-2-yl)methyl)amino)cyclohexane-1-carboxylic acid], no more than 500 nM.

For `O=C(O)C[C@H]1CCCN(Cc2ccc3c(C(F)(F)F)c(OC4CCC(F)(F)CC4)ccc3c2)C1` [Example 4, (R)-2-(1-((6-((4,4-difluorocyclohexyl)oxy)-5-(trifluoromethyl)naphthalen-2-yl)methyl)piperidin-3-yl)acetic acid], the IC50 was no more than 500 nM.

`O=C(O)[C@H]1CC[C@H](CNCc2ccc3c(C(F)F)c(O[C@H]4CC[C@@H](C(F)(F)F)CC4)ccc3c2)CC1` [Example 34, (trans)-4-(((5-(difluoromethyl)-6-((cis)-4-(trifluoromethyl)cyclohexyloxy)naphthalen-2-yl)methylamino)methyl)cyclohexanecarboxylic acid]: the IC50 is no more than 250 nM. For `CC(C)CC(NC1CC(C(=O)O)C1(C)C)c1ccc2c(C(F)(F)F)c(O[C@H]3CC[C@@H](C(F)(F)F)CC3)ccc2c1` (relative stereo) [Example 40, 2,2-dimethyl-3-(3-methyl-1-(5-(trifluoromethyl)-6-((cis)-4-(trifluoromethyl)cyclohexyloxy)naphthalen-2-yl)butylamino)cyclobutanecarboxylic acid], the IC50 is no more than 250 nM. On to `O=P(O)(O)CCCNCc1ccc2c(C(F)(F)F)c(O[C@H]3CC[C@@H](C(F)(F)F)CC3)ccc2c1` [Example 63, 3-(((5-(trifluoromethyl)-6-(cis-4-(trifluoromethyl)cyclohexyloxy)naphthalene-2-yl)methyl)amino)propylphosphonic acid], for which the IC50 is no more than 100 nM. Regarding `CCC(NC1CC(C(=O)O)C1(C)C)c1ccc2c(C(F)(F)F)c(O[C@H]3CC[C@@H](C)CC3)ccc2c1` (relative stereo) [Example 36, 2,2-dimethyl-3-(1-(6-((cis)-4-methylcyclohexyloxy)-5-(trifluoromethyl)naphthalen-2-yl)propylamino)cyclobutanecarboxylic acid], the IC50 was no more than 500 nM.

For `O=C(O)C1CCCCN1Cc1ccc2c(C(F)(F)F)c(O[C@H]3CC[C@@H](C(F)(F)F)CC3)ccc2c1` (relative stereo) [Example 29, 1-((5-(trifluoromethyl)-6-((cis)-4-(trifluoromethyl)cyclohexyloxy)naphthalen-2-yl)methyl)piperidine-2-carboxylic acid], the IC50 was no more than 500 nM. `C[C@H]1CC[C@@H](Oc2ccc3cc(C(C(=O)O)N4CCC(C(=O)O)CC4)ccc3c2C(F)(F)F)CC1` (stereo partly drawn) [Example 11, 1-(Carboxy(6-((cis-4-methylcyclohexyl)oxy)-5-(trifluoromethyl)naphthalen-2-yl)methyl)piperidine-4-carboxylic acid] registered an IC50 of no more than 500 nM. Consider `CCC(c1ccc2c(C(F)(F)F)c(O[C@H]3CC[C@@H](C)CC3)ccc2c1)N1CCC[C@@H](CC(=O)O)C1` (stereo partly drawn) [Example 52, 2-((3S)-1-(1-(6-((cis-4-Methylcyclohexyl)oxy)-5-(trifluoromethyl)naphthalen-2-yl)propyl)piperidin-3-yl)acetic acid], for which the IC50 was no more than 100 nM.
